{"source": "patent US10154997B2", "about": "“Treatment of parasitic diseases using KDAC inhibitor compounds” (Washington University, priority 2015, dated 2018)", "key": {"L929 mouse fibroblast": {"system": "L929 mouse fibroblast", "test": "Cytotoxicity viability assay (CYT vt)", "assay_type": "cell-based"}, "B. malayi": {"system": "B. malayi", "test": "Endoparasites dose response assay (Endoparasites_DR), B. malayi", "parameters": "species or system Brugia malayi", "settings": "nematode B. malayi"}, "human cancer cell lines": {"system": "human cancer cell lines", "test": "Activity on human cancer cell lines", "assay_type": "cell-based"}, "[1]": {"system": "parasites (nematodes and protists)", "test": "Compound screening in parasites, summary statements"}, "H. contortus": {"system": "H. contortus", "test": "Endoparasites dose response assay (Endoparasites_DR), H. contortus", "settings": "Haemonchus contortus, 96 h"}}, "note": "pEC50, pIC50: −log10 of the molar value. Where two headings read alike, the source gives them in different places.", "data": [{"compound": "Cn1cc(/C=C/C(=O)c2cccc(NC(=O)OC(C)(C)C)c2)cc1C(=O)NO", "note": "[MC2776]", "values": [{"measurement": "pIC50", "setting": "L929 mouse fibroblast; host-cell line, read-out: activity in the host-cell line", "result": "< 5.00"}, {"measurement": "pEC50", "setting": "B. malayi", "result": 5.36}, {"measurement": "pIC50", "setting": "human cancer cell lines", "result": "< 5.00"}, {"measurement": "efficacy in the protists", "setting": "[1]; any of the protists", "result": "did not show any efficacy"}]}, {"compound": "CC(C)(C)OC(=O)Nc1cccc(C(=O)/C=C/c2ccc(/C=C/C(=O)NO)cc2)c1", "note": "[MC2780]", "values": [{"measurement": "pan-parasite potential", "setting": "[1]; across parasites screened", "result": "demonstrated pan-parasite potential"}]}, {"compound": "CCCCCCCC(=O)SCC/C=C/[C@@H]1CC(=O)NCc2nc(cs2)C2=N[C@@](C)(CS2)C(=O)N[C@@H](C(C)C)C(=O)O1", "note": "[SD-L-148, Largazole, reference compound]", "values": [{"measurement": "pIC50", "setting": "L929 mouse fibroblast; Mus musculus, L929", "result": 7.00}, {"measurement": "pIC50", "setting": "H. contortus", "result": 5.15}]}]}
